“Also recorded” adds a separate entry of the source.
Experiments:
[1] = test system: ST cells; assay: Cell Counting Kit 8 cytotoxicity assay in ST cells; type: cell-based, swine; conditions: PM at concentrations less than 30 mM, 24 h
Protocol: Fig 1 PM inhibits TGEV and PRCV infection in ST cells. (A) A cytotoxicity assay of PM in ST cells. ST cells cultured in a 96-well plate were incubated with different concentrations of PM for 24 h, which was tested by Cell Counting Kit 8. (B) Time course for PM inhibiting TGEV or PRCV or PEDV infection assay. (C–F) The ST cells, pretreated with PM at the indicated concentrations for 1 h were infected with TGEV Miller (0.1 MOI) or PRCV (0.1 MOI) for 1 h and were again treated with PM at 37°C for 17 h. The cell samples were collected and examined by real-time quantitative PCR (RT-qPCR), TCID50, western blot (C and D), and immunofluorescence assay (IFA) (E and F), scale bar: 50 µm. (G) Vero-E6 cells were treated with indicated PM and infected with PEDV LJX 01/2014 according to the time course of Fig. 1B, which was detected by TCID50 and western blot. Results are presented as mean ± SD of data from three independent experiments. ns, no significant; **, P ≤ 0.01; ***, P ≤ 0.001.
ST cells or intestinal organoids cultured in a 96-well plate were incubated with different concentrations of PM (0, 0.1, 0.25, 0.5, 1, 2.5, 5, 10, 20, and 30 mM) for 24 h. […] The absorbance of each well was then measured at 450 nm using a microplate reader to determine cell viability.

[2] = test system: TGEV; assay: Time-of-drug-addition assay with TGEV in ST cells (inactivation, adsorption, penetration, replication, release); type: cell-based, transmissible gastroenteritis virus
Protocol: Fig 4 PM dampens TGEV infection by mainly blocking viral entry. (A) Inactivated assay. TGEV (0.1 MOI, red bar) and PM (10 mΜ) or H2O (blue bar) were mixed and incubated at 37°C for 3 and 5 h, respectively, and then the mixtures were added into ST cells. After incubation at 37°C for another 1 h, culture supernatants were replaced with fresh culture medium for 17 h at 37°C. After washing with PBS, the mRNA levels and viral load of TGEV N protein were measured by RT-qPCR. (B) Adsorption assay. ST cells were pretreated with PM (10 mΜ) or H2O (blue bar) for 1 h at 37°C, and then the media were replaced by a mixture of PM (10 mΜ) or H2O and TGEV (5 MOI, red bar) for 0.5 or 1 h at 4°C. After washing with PBS, the genomic RNA levels and viral load of TGEV N protein were measured by RT-qPCR. (C and D) Penetration assay. ST cells were infected with 5 MOI TGEV (red bar) for 1 h at 4°C and were then treated with PM (10 mΜ) or H2O (blue bar) for 1 or 2 h at 37°C after washing with PBS. The cell samples were washed using sodium citrate buffer and tested through RT-qPCR (C) and IFA (D), scale bar: 50 µm/5 µm. (E) Replication assay. ST cells infected with 5 MOI TGEV (red bar) were incubated at 37°C for 3 h and washed with sodium citrate buffer. Then, cells were treated with PM (10 mΜ) or H2O (blue bar) for 5 or 13 h. The cells were harvested and examined by RT-qPCR. (F) Release assay. ST cells were infected with 5 MOI TGEV (red bar) for 16 h and then PM (10 mΜ) or H2O (blue bar) was added to the cells for 1 or 2 h. qRT-PCR was used to test the mRNA levels and viral load of the virus in the supernatant. Results are presented as mean ± SD of data from three independent experiments. ***, P ≤ 0.001; ns, no significance. […]
red bar) and PM (10 mΜ) or H2O (blue bar) were mixed and incubated at 37 °C for 3 h and 5 h respectively and then the mixtures were added into ST cells. After incubation at 37°C for another 1 h, culture supernatants were replaced with fresh culture medium for 17 h at 37°C. Viral titers were detected by TCID50. (B) Release assay. ST cells were infected with 0.1 MOI TGEV (red bar) for 16 h and then PM (10 mΜ) or H2O (blue bar) was added to the cells for 1 h or 2 h. TCID50 was used to test the viral titers in supernatant. Results are presented as mean ± SD of data from three independent experiments ns, no significant.
(also on this page, place not known: 3h 5h 0 2 4 6 8 H2O PM log10 TCID50/ml ns ns 0 2 4 6 8 H2O PM log10 TCID50/ml ns ns -3h-5h 17h 18h CollectedPM/H2O) […]

Structure (SMILES): [K+].[K+].[O]=[Mo](=[O])([O-])[O-] [PM, potassium molybdate]
- cytotoxicity (Cell Counting Kit 8) [1]: did not exhibit significant cytotoxicity
- direct inactivation of TGEV (inactivated assay) ([2]; PM 10 mM mixed with TGEV 0.1 MOI at 37°C for 3 and 5 h, RT-qPCR, TCID50): cannot inactivate TGEV and affect viral release
- TGEV release ([2]; ST cells, PM 10 mM added 16 h after infection for 1 or 2 h, RT-qPCR, TCID50 of supernatant): cannot inactivate TGEV and affect viral release; also recorded: uninfluential in virus adsorption and release
- TGEV adsorption ([2]; ST cells, PM 10 mM, TGEV 5 MOI, 0.5 or 1 h at 4°C, RT-qPCR): uninfluential in virus adsorption and release
- TGEV entry (penetration assay) ([2]; ST cells, PM 10 mM, TGEV 5 MOI, 1 or 2 h at 37°C, RT-qPCR and IFA): significantly inhibited TGEV entry
- TGEV replication ([2]; ST cells, PM 10 mM, TGEV 5 MOI, PM for 5 or 13 h from 3 h after infection, RT-qPCR): moderately restricted viral replication

From article PMC11784013, “Potassium molybdate blocks APN-dependent coronavirus entry by degrading receptor via PIK3C3-mediated autophagy” (Journal of Virology, 2024)
